Publication PMC10916382, “Repurposing screen identifies novel candidates for broad-spectrum coronavirus antivirals and druggable host targets” (Antimicrobial Agents and Chemotherapy, 2024)
Counter-ions that a name gives are not always drawn. Like-named read-outs stand apart in the source and are kept apart here.

Key:
SARS-CoV-2 [1] = details: for outcome against confirmation criteria of the SARS-CoV-2 counter-screen (<50% infected cell, >75% total cells): single dose of 5 µM
SARS-CoV-2 [2] = details: for SI (CC50/IC50): CC50 from LDH assay / IC50 from qRT-PCR
HCoV-229E [3] = experiment: microbe, parasite or virus in culture; format: cell-based, Homo sapiens sapiens
SARS-CoV-2 [4] = details: cited from earlier work
in vitro [5] = experiment: in vitro
SARS-CoV-2 [6] = experiment: microbe, parasite or virus in culture; details: Severe acute respiratory syndrome coronavirus 2, Calu-3, 48 h
SARS-CoV-2 [7] = format: cell-based; details: dose range 0.15 µM to 10 µM, viral genome copies in apical washes and cellular lysates
in vitro [8] = details: human
HCoV-229E [9] = experiment: Twelve-step dose titration against HCoV-229E infection on Huh-7.5/F-Luc/Cas9 cells; format: cell-based, Homo sapiens sapiens; details: Human coronavirus 229E, Huh7.5, twelve-step 1:3 dilutions, n = 3
[10] = system: primary human airway epithelial cells; details: dose range 0.15 µM to 10 µM, cellular lysates
[11] = Calu-3 cells, immunofluorescence imaging
[12] = Huh-7.5 cells, dose series, maximum tested dose 5 µM
[13] = Human coronavirus 229E, Huh7.5, 48 h, read-out: IC50 against HCoV-229E
[14] = Calu-3 cells, screening dose 5 µM, 48 hours post-inoculation
[15] = Anti-SARS-CoV-2 screening on Calu-3 cells: viability [% of control], Calu-3 cells
[16] = Human coronavirus 229E, Huh7.5, read-out: IC50 (µM), HCoV 229E
[17] = Huh-7.5/F-Luc cells, maximum tested dose 5 µM

Compound	Anti-SARS-CoV-2 screening on Calu-3 cells: intracellular SARS-CoV-2 infection measured via immunofluorescence imaging [% of control] (SARS-CoV-2 [1]; [11])	viability (in vitro [5]; [15]) [%]	viability at 5 µM (in vitro [8]) [%]	IC50 (HCoV-229E [3]; [16]) [µM]	CC50 (µM) (Huh-7.5/F-Luc cells; [17])	other results
COc1cc(F)ccc1-c1cc(Nc2cc(CS(C)(=N)=O)ccn2)ncc1F (single isomer, unassigned; (+)) [(+)-BAY-1251152, reference compound]	51.46 % of control					Anti-SARS-CoV-2 screening on Calu-3 cells: viability [% of control] (SARS-CoV-2 [1]; Calu-3 cells): 100.11 % of control; outcome against confirmation criteria of the SARS-CoV-2 counter-screen (<50% infected cell, >75% total cells) (SARS-CoV-2 [1]; Calu-3 cells): did not meet our stringent confirmation criteria; virus load in the culture fluid (SARS-CoV-2 [2]): reduced virus load; IC50 (HCoV-229E [3]; HCoV 229E infection, dose series, max. dose 5 µM, read-out: IC50): 0.13 µM; CC50 (µM) (Huh-7.5/F-Luc cells; [12]): greater than maximum tested dose; % cell viability at max. dose [5 µM] (Huh-7.5/F-Luc cells; at max. dose 5 µM): 115.26%
COC(=O)/C=C/C(=O)OC [DMF, dimethyl fumarate]						anti-SARS-CoV-2 effects (SARS-CoV-2 [4]): anti-SARS-CoV-2 effects at high concentrations
CC1(C)CC[C@]2(C(=O)O)CC[C@]3(C)[C@H](C(=O)C=C4[C@@]5(C)C=C(C#N)C(=O)C(C)(C)[C@@H]5CC[C@]43C)[C@@H]2C1 [Bardoxolone, reference compound]	95.03 % of control					outcome against confirmation criteria of the SARS-CoV-2 counter-screen (<50% infected cell, >75% total cells) (SARS-CoV-2 [1]; Calu-3 cells): did not meet the inclusion criteria; SI (CC50/IC50) (SARS-CoV-2 [2]; Calu-3 cells): 3.90; IC50 (HCoV-229E [3]; Human coronavirus 229E, Huh7.5): 0.04 µM; IC50 (HCoV-229E [3]; [13]): 0.037 µM; viability at 48 h, 5 µM (in vitro [5]): 118%; IC50 (SARS-CoV-2 [6]): 1890 nM; IC90 (SARS-CoV-2 [6]): 7030 nM; antiviral activity against SARS-CoV-2 in HAE cells (SARS-CoV-2 [7]): the reduction in viral genome copies could not be separated from an increase in cytotoxicity
COCCN1CCN(Cc2ccc(-c3n[nH]c4c3C(=O)c3c(NC(=O)NN5CCOCC5)cccc3-4)cc2)CC1 [RGB-286638, reference compound]	123.82 % of control	19				outcome against confirmation criteria of the SARS-CoV-2 counter-screen (<50% infected cell, >75% total cells) (SARS-CoV-2 [1]; Calu-3 cells): did not meet our stringent confirmation criteria; virus load in the culture fluid (SARS-CoV-2 [2]; [14]): reduced virus load; IC50 (HCoV-229E [3]; Human coronavirus 229E, Huh7.5): 0.12 µM; CC50 (µM) (Huh-7.5/F-Luc cells; [12]): greater than maximum tested dose
CN[C@@H](CC(C)C)C(=O)NCCCC(c1ccc(F)cc1)c1ccc(F)cc1 [RFM-010-013-0]	111.66 % of control	99.2	136	2.77	greater than maximum tested dose	
COc1ccc2[nH]c([S+]([O-])Cc3ncc(C)c(OC)c3C)nc2c1 (centres unmarked) [OMP, omeprazole]						inhibition of SARS-CoV-2 infection (SARS-CoV-2 [4]; Vero cells): inhibited SARS-CoV-2 infection of Vero cells
O=Cc1c2[nH]c3ccccc3c2cc2[nH]c3ccccc3c12 [FICZ, 6-formylindolo(3,2-b) carbazole]						inhibition of SARS-CoV-2 infection (SARS-CoV-2 [4]; Vero cells): inhibited SARS-CoV-2 infection of Vero cells
CC(C)C(=O)c1ccc(OCCCN2CCC(C(O)(c3ccc(F)cc3)c3ccc(F)cc3)CC2)cc1 [RFM-010-056-1]	122.17 % of control	93.4	119	1.47	greater than maximum tested dose	
CC(C(O)c1ccccc1)N(C)CC=C1c2ccccc2CCc2ccccc21 (centres unmarked) [RFM-010-015-2]	107.49 % of control	107	122	1.96	greater than maximum tested dose	
C=C(CC(=O)OCCCCCCCC)C(=O)O [4-OI, 4-octyl-itaconate]						anti-SARS-CoV-2 effects (SARS-CoV-2 [4]): anti-SARS-CoV-2 effects at high concentrations
CCc1cnn2c(NCc3ccc[n+]([O-])c3)cc(N3CCCC[C@H]3CCO)nc12 [Dinaciclib, reference compound]						Anti-SARS-CoV-2 screening on Calu-3 cells: intracellular SARS-CoV-2 infection measured via immunofluorescence imaging [% of control] (SARS-CoV-2 [1]): 72.14 % of control; outcome against confirmation criteria of the SARS-CoV-2 counter-screen (<50% infected cell, >75% total cells) (SARS-CoV-2 [1]; Calu-3 cells): did not meet our stringent confirmation criteria; virus load in the culture fluid (SARS-CoV-2 [2]; [14]): reduced virus load; viability at 48 h, 5 µM (in vitro [5]): 29.7%; CC50 (µM) (Huh-7.5/F-Luc cells): greater than maximum tested dose; inhibition of SARS-CoV-2 infection (SARS-CoV-2 [4]; Vero E6 and A549/ACE2 cells): nanomolar efficacy
Oc1ccc2c(c1)OC[C@@H](c1ccccc1)[C@H]2c1ccc(OCCN2CCCC2)cc1 [RFM-011-457-8]	113.89 % of control	101	144	1.5	greater than maximum tested dose	
Cc1nc(Nc2ncc(N3CCN(C)[C@H](C)C3)c(Nc3cc(C)n(C)n3)n2)cc(C2CC2)c1F [RFM-012-989-5]	114.63 % of control	114	125	1.97	greater than maximum tested dose	
Cc1cc(OCCN(C)C)c(C(C)C)cc1OC(=O)CC(C)(C)SN=O [RFM-011-454-5]	101.17 % of control	88.9	118	2.37	greater than maximum tested dose	
CCN(CC)CCOc1ccc(-c2nc3cc(Cl)ccc3s2)cc1 [RFM-005-834-4]	104.24 % of control	88.8	91.6	1.51	greater than maximum tested dose	
CCc1ccc2c(c1)N(CC(C)CN(C)C)c1ccccc1S2 (centres unmarked) [RFM-012-636-3]	133.66 % of control		138	1.71	greater than maximum tested dose	viability at 48 h, 5 µM (in vitro [5]): 108%
CN(C)CCOC(c1ccccc1)c1ccc(Br)cc1 (centres unmarked) [RFM-010-846-3]	102.09 % of control	92.2	157	2.14	greater than maximum tested dose	
CCCN(CCC)C(=O)C(Cc1ccc(OCCCN2CCN(C)CC2)cc1)NC(=O)c1ccc(Br)cc1 (centres unmarked) [RFM-012-167-5]	114.35 % of control	99.3	141	2.36	greater than maximum tested dose	
COc1cccc(CCc2ccccc2OCC[C@@H]2C[C@@H](O)CN2C)c1 [RFM-011-187-5]	105.26 % of control	102	131	2.43	greater than maximum tested dose	
CN(C)CC(O)COc1ccccc1C1CC2CCC1C2 (centres unmarked) [RFM-012-243-0]	114.97 % of control	95.3	142	1.84	greater than maximum tested dose	
Cn1cc(C2=C(c3c4n(c5ccccc35)CCC(CN)C4)C(=O)NC2=O)c2ccccc21 (centres unmarked) [RFM-009-039-1]	111.69 % of control	95.9	154	1.73	greater than maximum tested dose	
CCCCc1oc2ccc(C(=O)OC(C)C)cc2c1C(=O)c1ccc(CCCN(CCCC)CCCC)cc1 [RFM-009-487-1]	97.65 % of control	87.8	122	1.23	greater than maximum tested dose	
COC(=O)C1=C(C)NC(C)=C(C(=O)OCCCN2CCC(c3ccccc3)(c3ccccc3)CC2)[C@@H]1c1cccc([N+](=O)[O-])c1 [RFM-003-515-4]			136	1.39		Anti-SARS-CoV-2 screening on Calu-3 cells: intracellular SARS-CoV-2 infection measured via immunofluorescence imaging [% of control] (SARS-CoV-2 [1]): 83.07 % of control; viability (in vitro [5]): 92.9%; CC50 (µM) (Huh-7.5/F-Luc cells): greater than maximum tested dose
CCCCC1=Cc2cc3c(cc2C1N1CCN(C)CC1)OCO3 (centres unmarked) [RFM-005-200-6]	112.43 % of control	102	145	2.5	greater than maximum tested dose	
CCC(CC)COC(=O)[C@H](C)N[P@](=O)(OC[C@H]1O[C@@](C#N)(c2ccc3c(N)ncnn23)[C@H](O)[C@@H]1O)Oc1ccccc1 [Remdesivir]	1.09 % of control					SI (CC50/IC50) (SARS-CoV-2 [2]; Calu-3 cells): > 6.76; IC50 (HCoV-229E [3]; Human coronavirus 229E, Huh7.5): 0.02 µM; IC50 (HCoV-229E [3]; [13]): 0.0157 µM; IC50 (HCoV-229E [9]): 0.83 nM; IC50 (SARS-CoV-2 [6]): 180 nM; IC90 (SARS-CoV-2 [6]): 310 nM; CC50 (µM) (Huh-7.5/F-Luc cells; [12]): greater than maximum tested dose; cytotoxicity in HAE cells, GAPDH mRNA [10]: without reducing GAPDH mRNA levels; antiviral activity against SARS-CoV-2 in HAE cells (SARS-CoV-2 [7]): dose dependently inhibited SARS-CoV-2 infection
